Assay results published in US7709521B2, “Substituted indole derivatives for pharmaceutical compositions for treating respiratory diseases” (AstraZeneca AB, priority 2003, dated 2010).

Molecular target: T1, rhCRTh2 (Homo sapiens, UniProt Q9Y5Y4)
T1 construct: expressed in transfected cells; host or cells: HEK cells (membrane preparation)
T1 sequence (Q9Y5Y4 1-395): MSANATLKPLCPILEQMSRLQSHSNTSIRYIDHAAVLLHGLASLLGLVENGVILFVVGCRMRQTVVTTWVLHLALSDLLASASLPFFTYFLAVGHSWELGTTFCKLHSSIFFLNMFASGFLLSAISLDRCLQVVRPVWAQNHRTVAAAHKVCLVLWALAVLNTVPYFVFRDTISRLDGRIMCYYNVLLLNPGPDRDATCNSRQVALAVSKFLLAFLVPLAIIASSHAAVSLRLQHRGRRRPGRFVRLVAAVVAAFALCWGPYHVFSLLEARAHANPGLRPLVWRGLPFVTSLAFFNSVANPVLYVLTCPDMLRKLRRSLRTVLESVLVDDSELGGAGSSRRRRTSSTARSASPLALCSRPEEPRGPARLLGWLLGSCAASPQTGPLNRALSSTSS
Assay: Ligand binding assay ([3H]PGD2 displacement, SPA, HEK cell membranes)
Settings: [3H]PGD2 binding to membranes of HEK cells expressing rhCRTh2/Gα16, SPA beads, room temperature, 2 hours
Experimental: [^3H]PGD2 was purchased from Perkin Elmer Life Sciences with a specific activity of 100-210 Ci/mmol.
HEK cells expressing rhCRTh2/Gα16 were routinely maintained in DMEM containing 10% Foetal Bovine Serum (HyClone), 1 mg/ml geneticin, 2 mM L-glutamine and 1% non-essential amino acids. For the preparation of membranes, the adherent transfected HEK cells were grown to confluence in two layer tissue culture factories (Fisher, catalogue number TKT-170-070E). Maximal levels of receptor expression were induced by addition of 500 mM sodium butyrate for the last 18 hours of culture. The adherent cells were washed once with phosphate buffered saline (PBS, 50 ml per cell factory) and detached by the addition of 50 ml per cell factory of ice-cold membrane homogenisation buffer [20 mM HEPES (pH 7.4), 0.1 mM dithiothreitol, 1 mM EDTA, 0.1 mM phenyl methyl sulphonyl fluoride and 100 μg/ml bacitracin]. Cells were pelleted by centrifugation at 220×g for 10 minutes at 4° C., re-suspended in half the original volume of fresh membrane homogenisation buffer and disrupted using a Polytron homogeniser for 2×20 second bursts keeping the tube in ice at all times. […] The final pellet was re-suspended in 4 ml of membrane homogenisation buffer per cell factory used and the protein content determined. […]
All assays were performed in Corning clear bottomed, white 96-well NBS plates (Fisher). […] (The optimum coating concentrations were determined for each batch of membranes) The beads were pelleted by centrifugation (800×g for 7 minutes at 4° C.), washed once with assay buffer (50 mM HEPES pH 7.4 containing 5 mM magnesium chloride) and finally re-suspended in assay buffer at a bead concentration of 10 mg/ml.
Compounds and DK-PGD2 were dissolved in DMSO and diluted in the same solvent to 100× the required final concentration. […] The assay plate was incubated at room temperature for 2 hours and counted on a Wallac Microbeta liquid scintillation counter (1 minute per well).
With Cc1c(Oc2ccc(C(=O)O)cc2)c2cc(F)ccc2n1CC(=O)O [Example 9, 3-(4-Carboxyphenoxy)-5-fluoro-2-methyl-1H-indole-1-acetic acid] the IC50 was 178 nM. In the case of Cc1c(Oc2ccc(Cl)cc2)c2cc(S(C)(=O)=O)ccc2n1CC(=O)O [Example 5, 3-(4-chlorophenoxy)-2-methyl-5-(methylsulfonyl)-1H-indole-1-acetic acid], the IC50 is reported as 89.1 nM. With Cc1c(Oc2ccc(Cl)cc2)c2cc(C(F)(F)F)ccc2n1CC(=O)O [Example 6, 3-(4-chlorophenoxy)-2-methyl-5-(trifluoromethyl)-1H-indole-1-acetic acid] the IC50 was 11.2 nM.

Tested on: not given
Assay: not given
Settings: not given
In the case of CCNC(=O)c1ccc(Oc2c(C)n(CC(=O)O)c3ccc(F)cc23)cc1 [Example 11, 3-[4-[(Ethylamino)carbonyl]phenoxy]-5-fluoro-2-methyl-1H-indole-1-acetic acid], the melting point is reported as 220 to 222 °C. Compound COC(=O)c1ccc(Oc2c(C)n(CC(=O)O)c3ccc(F)cc23)cc1 [Example 14, 5-Fluoro-3-[4-(methoxycarbonyl)phenoxy]-2-methyl-1H-indole-1-acetic acid] has a melting point of 195 to 196 °C. In the case of CCNC(=O)c1ccc(Oc2c(C)n(CC(=O)O)c3ccc(Cl)cc23)cc1 [Example 17, 5-Chloro-3-[4-[(ethylamino)carbonyl]phenoxy]-2-methyl-1H-indole-1-acetic acid], the melting point is reported as 220 °C (dec.). Work on Cc1c(Oc2ccc(C(=O)NC(C)C)cc2)c2cc(Cl)ccc2n1CC(=O)[O-].[Na+] [Example 18, Sodium 5-Chloro-2-methyl-3-[4-[[(1-methylethyl)amino]carbonyl]phenoxy]-1H-indole-1-acetate] yielded a melting point of under 275 °C. Work on COC(=O)c1ccc(Oc2c(C)n(CC(=O)O)c3ccc(Cl)cc23)cc1 [Example 15, 5-Chloro-3-[4-(methoxycarbonyl)phenoxy]-2-methyl-1H-indole-1-acetic acid] yielded a melting point of 196 to 197 °C. In the case of Cc1c(Oc2ccc(C(=O)O)cc2)c2cc(Cl)ccc2n1CC(=O)O [Example 13, 3-(4-Carboxyphenoxy)-5-chloro-2-methyl-1H-indole-1-acetic acid], the melting point is reported as 215 to 216 °C. With Cc1c(Oc2ccc(S(C)(=O)=O)cc2)c2cc(F)ccc2n1CC(=O)O [Example 2, 5-Fluoro-2-methyl-3-[4-(methylsulfonyl)phenoxy]-1H-indole-1-acetic acid] the melting point was 204 to 207 °C. In the case of CNC(=O)c1ccc(Oc2c(C)n(CC(=O)O)c3ccc(Cl)cc23)cc1 [Example 16, 5-Chloro-2-methyl-3-[4-[(methylamino)carbonyl]phenoxy]-1H-indole-1-acetic acid], the melting point is reported as 225 °C (dec.). With CNC(=O)c1ccc(Oc2c(C)n(CC(=O)O)c3ccc(F)cc23)cc1 [Example 10, 5-Fluoro-2-methyl-3-[4-[(methylamino)carbonyl]phenoxy]-1H-indole-1-acetic acid] the melting point was 217 to 218 °C. With Cc1c(Oc2ccc(C(=O)NC(C)C)cc2)c2cc(F)ccc2n1CC(=O)O [Example 12, 5-Fluoro-2-methyl-3-[4-[[(1-methylethyl)amino]carbonyl]phenoxy]-1H-indole-1-acetic acid] the melting point was 218 to 219 °C.
